Test results: patent US20090004185A1, “AMINO-SUBSTITUTED QUINAZOLINE DERIVATIVES AS INHIBITORS OF BETA-CATENIN/TCF-4 PATHWAY AND CANCER TREATMENT AGENTS” (WYETH, priority 2007, published 2009)

Legend:
β-catenin/Tcf-4 = experiment: cells; type: cell-based; conditions: 24 hours of incubation with compound, ratio Firefly/Renilla luciferase
Summary of the method: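 SW480-derived lines with integrated reporters (Tcf-4-driven firefly luciferase; SV40 firefly as specificity control; SV40 Renilla for cell number/toxicity), treated 24 hours with titrated compounds, final 0.316% DMSO. Dual-luciferase read-out; firefly/Renilla ratio as % of control, duplicate plates, IC50 (nM) from curve fit.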

SV40-Luc = SV40-Luc control luciferase reporter assay, SV 5A8 cell line (SV40-Luc and SV40-R-Luc), control for non-specific inhibitors; type: cell-based, human; conditions: SV 5A8 cells derived from SW480, 24 hours of incubation with compound, ratio Firefly/Renilla luciferase
Summary of the method: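 SW480-derived lines with integrated reporters: SV 5A8 (SV40 firefly plus SV40 Renilla), Tcf 33.13 and Tcf 22C11 (Tcf-4 firefly plus SV40 Renilla). Cells seeded 1×10^4/well, compounds added 20-24 h later at titrated concentrations (final DMSO 0.316%) for 24 h. Firefly/Renilla ratio, as % of control, gave IC50 (nM).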

[1] = Homo sapiens, SW480, 24 h, Tcf 33.13 cells derived from SW480
[2] = Homo sapiens, Tcf22C11, 24 h, Tcf 22C11 cells derived from SW480
[3] = Tcf 22C11 cells derived from SW480
[4] = Tcf 33.13 cells derived from SW480

Row | SMILES | IC50 (β-catenin/Tcf-4; [1]) [nM] | IC50 (β-catenin/Tcf-4; [2]) [nM] | IC50 (SV40-Luc; Homo sapiens, SV5A8, 24 h) [nM] | IC50 (β-catenin/Tcf-4; [3]) [nM] | IC50 (β-catenin/Tcf-4; [4]) [nM] | IC50 (SV40-Luc) [nM]
1 | CCOC(=O)N1CCN(c2nc(NCc3ccc(NC(=O)c4ccc(F)cc4)cc3)c3cc(C)ccc3n2)CC1 [Example 54, Ethyl 4-[4-({4-[(4-fluorobenzoyl)amino]benzyl}amino)-6-methylquinazolin-2-yl]piperazine-1-carboxylate] | 846 | 1230 | > 18400 |  |  | 
2 | C=Cc1ccc2nc(N(C)C)nc(NCc3ccc(NC(=O)C4CCN(Cc5ccccc5)CC4)cc3)c2c1 [Example 75, 1-benzyl-N-[4-({[2-(dimethylamino)-6-vinylquinazolin-4-yl]amino}methyl)phenyl]-piperidine-4-carboxamide] | 287 | 437 | > 4490 |  |  | 
3 | Cc1c(F)ccc2c(NCc3ccc(NC(=O)c4ccc(Cl)nc4)cc3)nc(N(C)C)nc12 [Example 64, 6-chloro-N-[4-({[2-(dimethylamino)-7-fluoro-8-methylquinazolin-4-yl]amino}methyl)phenyl]nicotinamide] | 8960 | 11100 | > 10800 |  |  | 
4 | Cc1cccc2c(NCc3ccc(NC(=O)C4CCN(Cc5ccccc5)CC4)cc3)nc(N(C)C)nc12 [Example 76, 1-benzyl-N-[4-({[2-(dimethylamino)-8-methylquinazolin-4-yl]amino}methyl)phenyl]piperidine-4-carboxamide] | 2150 | 1560 | > 9170 |  |  | 
5 | Cc1ccc2nc(N3CCCCC3)nc(NCc3ccc(NC(=O)c4ccc(F)cc4)cc3)c2c1 [Example 42, 4-fluoro-N-(4-{[(6-methyl-2-piperidin-1-ylquinazolin-4-yl)amino]methyl}phenyl)benzamide] | 2940 | 9250 | > 10600 |  |  | 
6 | Cc1ccc2nc(N3CCN(C)CC3)nc(NCc3ccc(NC(=O)c4ccc(F)cc4)cc3)c2c1 [Example 46, 4-fluoro-N-((6-methyl-2-(4-methylpiperazin-1-yl)quinazolin-4-ylamino)methyl-phenyl)benzamide] |  |  |  | > 20800 | > 20800 | > 20800
7 | CNc1nc(NCc2ccc(NC(=O)c3cc(F)c(Cl)nc3Cl)cc2)c2ccccc2n1 [Example 8, 2,6-dichloro-5-fluoro-N-[4-({[2-(methylamino)quinazolin-4-yl]amino}methyl)phenyl]nicotinamide] | 1530 | 1770 | > 5300 |  |  | 
8 | CCN1CCN(c2nc(NCc3ccc(NC(=O)c4ccc(F)cc4)cc3)c3cc(C)ccc3n2)CC1 [Example 57, N-[4-({[2-(4-ethylpiperazin-1-yl)-6-methylquinazolin-4-yl]amino}methyl)phenyl]-4-fluorobenzamide] | 1600 | 923 | > 10000 |  |  | 
9 | CNc1nc(NCc2ccc(NC(=O)c3ccc(F)cc3Cl)cc2)c2cc(C)ccc2n1 [Example 28, 2-chloro-4-fluoro-N-[4-({[6-methyl-2-(methylamino)quinazolin-4-yl]amino}methyl)phenyl]benzamide] | 904 | > 1390 | > 1390 |  |  | 
10 | CN(C)c1nc(NCc2ccc(NC(=O)C3CCN(Cc4ccccc4)CC3)cc2)c2cc(I)ccc2n1 [Example 74, 1-benzyl-N-[4-({[2-(dimethylamino)-6-iodoquinazolin-4-yl]amino}methyl)phenyl]piperidine-4-carboxamide] | 1380 | 950 | > 8060 |  |  | 
11 | Cc1ccc2nc(N3CCNCC3)nc(NCc3ccc(NC(=O)c4ccc(F)cc4)cc3)c2c1 [Example 45] |  |  |  | 1800 | 1480 | > 10600
12 | Cc1ccc2nc(N(C)C)nc(NCc3ccc(NC(=O)c4ccc(F)cc4)cc3)c2c1 [Example 39, N-[4-({[2-(dimethylamino)-6-methylquinazolin-4-yl]amino}methyl)phenyl]-4-fluorobenzamide] |  |  |  | 428 | 217 | > 5820
13 | Cc1ccc2nc(N3CCN(c4ncccn4)CC3)nc(NCc3ccc(NC(=O)C4CCN(Cc5ccccc5)CC4)cc3)c2c1 [Example 82, 1-benzyl-N-[4-({[6-methyl-2-(4-pyrimidin-2-ylpiperazin-1-yl)quinazolin-4-yl]amino}methyl)phenyl]piperidine-4-carboxamide] | 891 | 872 | > 7960 |  |  | 
14 | C=Cc1ccc2c(NCc3ccc(NC(=O)c4ccc(Cl)nc4)cc3)nc(N(C)C)nc2c1 [Example 111, 6-chloro-N-[4-({[2-(dimethylamino)-7-vinylquinazolin-4-yl]amino}methyl)phenyl]nicotinamide] | 181 | 238 | > 2520 |  |  | 
15 | Cc1ccc2nc(N(C)C)nc(NCc3ccc(NC(=O)c4ccc(F)cc4)cc3)c2c1 [Example 38, N-[4-({[2-(dimethylamino)-6-methylquinazolin-4-yl]amino}methyl)phenyl]-4-fluorobenzamide] |  |  | > 11600 | 1620 | 2050 | 

The remaining lines, values ahead:

Row | IC50 (β-catenin/Tcf-4; [1]) [nM] | IC50 (β-catenin/Tcf-4; [2]) [nM] | IC50 (SV40-Luc; Homo sapiens, SV5A8, 24 h) [nM] | IC50 (β-catenin/Tcf-4; [3]) [nM] | IC50 (β-catenin/Tcf-4; [4]) [nM] | IC50 (SV40-Luc) [nM] | SMILES
16 |  |  |  | 692 | 806 | > 2340 | CN(C)c1cccc(-c2ccc3nc(N(C)C)nc(NCc4ccc(C(=O)Nc5ccc(F)cc5)cc4)c3c2)c1 [Example 170]
17 | 991 | 1380 | > 2830 |  |  |  | O=C(Nc1ccc(CNc2nc(NC3CCC3)nc3ccccc23)cc1)c1ccc(F)cc1 [Example 115, N-[4-({[2-(cyclobutylamino)quinazolin-4-yl]amino}methyl)phenyl]-4-fluorobenzamide]
18 | 245 | 266 | > 2710 |  |  |  | Cc1ccc2nc(N(C)C)nc(NCc3ccc(NC(=O)Nc4ccc(Cl)cc4)cc3)c2c1 [Example 178, N-(4-chlorophenyl)-N′-[4-({[2-(dimethylamino)-6-methylquinazolin-4-yl]amino}methyl)phenyl]urea]
19 |  |  |  | 2940 | 4280 | > 19300 | CN(C)c1nc(NCc2ccc(NC(=O)c3ccc(F)cc3)cc2)c2cc(/C=C\c3ccccc3)ccc2n1 [Example 171]
20 | 781 | 1000 | > 9740 |  |  |  | Cc1ccc2c(NCc3ccc(NC(=O)c4ccc(F)cc4)cc3)nc(N3CCCCC3CCO)nc2c1 (stereo not drawn) [Example 224, 4-fluoro-N-{4-[({2-[2-(2-hydroxyethyl)piperidin-1-yl]-7-methylquinazolin-4-yl}amino)methyl]phenyl}benzamide]
21 | 364 | 1580 | > 1330 |  |  |  | O=C(Nc1ccc(CNc2nc(NC3CCCCC3)nc3ccccc23)cc1)c1ccc(F)cc1 [Example 125, N-[4-({[2-(cyclohexylamino)quinazolin-4-yl]amino}methyl)phenyl]-4-fluorobenzamide]
22 | 2210 | 1900 | > 4640 |  |  |  | Cc1ccc2c(NCc3ccc(NC(=O)c4ccc(F)cc4)cc3)nc(N3CCC[C@H]3CN3CCCC3)nc2c1 [Example 228, 4-fluoro-N-{4-[({7-methyl-2-[(2S)-2-(pyrrolidin-1-ylmethyl)pyrrolidin-1-yl]quinazolin-4-yl}amino)methyl]phenyl}benzamide]
23 | > 9510 | > 9510 | > 9510 |  |  |  | O=C(Nc1ccc(CNc2nc(NC3CCC3)nc3ccc(C(F)(F)F)cc23)cc1)c1ccc(Cl)cc1 [Example 166, 4-chloro-N-[4-({[2-(cyclobutylamino)-6-(trifluoromethyl)quinazolin-4-yl]amino}methyl)phenyl]benzamide]
24 | 1390 | 1710 | > 12400 |  |  |  | Cc1ccc2c(NCc3ccc(NC(=O)c4ccc(F)cc4)cc3)nc(N3CCN(CC(=O)N4CCCC4)CC3)nc2c1 [Example 213, 4-fluoro-N-{4-[({7-methyl-2-[4-(2-oxo-2-pyrrolidin-1-ylethyl)piperazin-1-yl]quinazolin-4-yl}amino)methyl]phenyl}benzamide]
25 | 4320 | 4280 | > 11600 |  |  |  | CN(C)c1nc(NCc2ccc(NC(=O)Nc3ccc(F)cc3)cc2)c2ccccc2n1 [Example 182, N-[4-({[2-(dimethylamino)quinazolin-4-yl]amino}methyl)phenyl]-N′-(4-fluorophenyl)urea]
26 | 184 | 213 | > 4590 |  |  |  | Cc1ccc2c(NCc3ccc(NC(=O)C4CCN(Cc5cc(F)ccc5F)CC4)cc3)nc(N(C)C)nc2c1 [Example 262, 1-(2,5-difluorobenzyl)-N-[4-({[2-(dimethylamino)-7-methylquinazolin-4-yl]amino}methyl)phenyl]piperidine-4-carboxamide]
27 | 3150 | > 2500 | > 10000 |  |  |  | COC[C@@H]1CCCN1c1nc(NCc2ccc(NC(=O)c3ccc(F)cc3)cc2)c2ccc(C)cc2n1 [Example 205, 4-fluoro-N-{4-[({2-[(2S)-2-(methoxymethyl)pyrrolidin-1-yl]-7-methylquinazolin-4-yl}amino)methyl]phenyl}benzamide]
28 | 3680 | 1860 | > 16300 |  |  |  | Cc1ccc2c(NCc3ccc(NC(=O)c4ccc(F)cc4)cc3)nc(N3CCN(C=O)CC3)nc2c1 [Example 217, 4-fluoro-N-[4-({[2-(4-formylpiperazin-1-yl)-7-methylquinazolin-4-yl]amino}methyl)phenyl]benzamide]
